The record followed here is EPA's ToxRefDB 2.

For data set [1], the system named is rabbit. To be noted: Prenatal developmental toxicity study, dutch, Oral, Gavage/Intubation, dose end: 18 GD.
In data set [2] the test system is rat. To be noted: Prenatal developmental toxicity study, sprague dawley, Oral, Gavage/Intubation, dose end: 15 GD.
For a further data set, the system named is mouse. To be noted: Prenatal developmental toxicity study, cd1, Oral, Gavage/Intubation, dose end: 17 GD.
The test system of data set [3] is rat. To be noted: Prenatal developmental toxicity study, sprague dawley, Oral, Gavage/Intubation, dose end: 16 GD.
For data set [4], the system named is rabbit. To be noted: Prenatal developmental toxicity study, new zealand white, Oral, Gavage/Intubation, dose end: 18 GD.
Data set [5] relates to rat. To be noted: Multigenerational reproductive toxicity study, wistar, Oral, Gavage/Intubation, dose end: 2 generation.
The subject of data set [6] is rat. To be noted: Multigenerational reproductive toxicity study, sprague dawley, Oral, Gavage/Intubation, dose end: 2 generation.
Data set [7] concerns rat. To be noted: Prenatal developmental toxicity study, other, Oral, Gavage/Intubation, dose end: 19 GD.
[8] abbreviates: group: developmental, systemic / in life observation / body weight / fetal weight.
[9] abbreviates: group: maternal, reproductive / reproductive performance / resorptions / resorptions + systemic / in life observation / body weight / body weight gain + ….
Where [10] appears, read: group: developmental, developmental / developmental malformation / bone / [other] + developmental / developmental malformation / bone / incomplete ossification + ….
Setting [11] is: group: maternal, systemic / in life observation / body weight / body weight gain.
Setting [12] is: group: developmental, developmental / developmental malformation / bone / supernumerary + systemic / in life observation / body weight / fetal weight.
Setting [13] is: group: maternal, systemic / in life observation / body weight / body weight + systemic / in life observation / body weight / body weight gain + systemic / ….
Setting [14] is: group: maternal, systemic / in life observation / food consumption / food consumption.
Setting [15] is: group: maternal, systemic / in life observation / food consumption / food consumption + systemic / in life observation / body weight / body weight.
Where [16] appears, read: group: developmental, developmental / developmental malformation / bone / absent + developmental / developmental malformation / bone / full supernumerary.
[17] abbreviates: group: maternal, systemic / in life observation / clinical signs / respiration (dyspnea).
[18] abbreviates: group: offspring, developmental / offspring survival late / lactation index / lactation index.
Setting [19] is: group: parental, systemic / in life observation / body weight / body weight + systemic / in life observation / clinical signs / poor general condition.
Where [20] appears, read: group: offspring, developmental / offspring survival late / viability index / viability index + systemic / in life observation / body weight / offspring (pup….
The mark [21] stands for this setting: group: parental, systemic / pathology microscopic / liver / hypertrophy + systemic / pathology microscopic / kidney / regeneration + systemic / organ weight….
The mark [22] stands for this setting: group: parental, systemic / pathology microscopic / liver / hypertrophy + systemic / pathology microscopic / kidney / regeneration + systemic / pathology ….
The mark [23] stands for this setting: group: developmental, developmental / developmental malformation / bone / [other] + developmental / developmental malformation / bone / bipartite ossification + ….
Where [24] appears, read: group: maternal, systemic / in life observation / body weight / body weight gain + systemic / in life observation / food consumption / food efficiency.

A value given as a limit tells only on which side of the number the result lay.

Take `Cc1cccc(N)c1N` [2,3-Diaminotoluene]: the LEL in the data set on rabbit [1] (setting [8]) was determined as 100 mg/kg/day; in the data set with rabbit [1] (setting [9]), 100 mg/kg/day; with rat [2] (group: developmental, developmental / developmental malformation / bone / [other] + developmental / developmental malformation / bone / incomplete ossification), 100 mg/kg/day; with rat [2] (setting [11]) it was 300 mg/kg/day. The LOAEL (commonly the lowest dose or exposure tested at which an adverse effect was seen) in the data set with rabbit [1] (setting [8]) is greater than 100 mg/kg/day; with rabbit [1] (setting [9]), greater than 100 mg/kg/day; with rat [2] (setting [10]) it was greater than 300 mg/kg/day; with rat [2] (setting [11]), greater than 300 mg/kg/day. Further, the NEL with rabbit [1] (setting [8]) is 30 mg/kg/day; in the data set on rabbit [1] (group: maternal, reproductive / reproductive performance / resorptions / resorptions + systemic / in life observation / body weight / body weight gain), 30 mg/kg/day; in the data set with rat [2] (setting [10]) it was 30 mg/kg/day; with rat [2] (setting [11]), 100 mg/kg/day. For the same molecule, the NOAEL (usually the highest tested level that showed no adverse finding) with rabbit [1] (setting [8]) is no less than 100 mg/kg/day; with rabbit [1] (setting [9]), no less than 100 mg/kg/day; in the data set on rat [2] (setting [10]) it was no less than 300 mg/kg/day; with rat [2] (setting [11]) it was no less than 300 mg/kg/day.
`C=CC(=O)NCNC(=O)C=C` [N,N'-Methylenebisacrylamide] showed an LEL in the data set on mouse (group: developmental, developmental / developmental malformation / bone / supernumerary) of 10 mg/kg/day. Further, in the data set on mouse (setting [12]), the LOAEL was greater than 30 mg/kg/day, the NEL worked out at 3 mg/kg/day and the NOAEL is no less than 30 mg/kg/day. In the data set on mouse (setting [13]), the LOAEL was greater than 30 mg/kg/day, the NEL came to 3 mg/kg/day and the NOAEL was no less than 30 mg/kg/day. The LEL in the data set on mouse (group: maternal, systemic / in life observation / body weight / body weight + systemic / organ weight / liver / relative to body weight + systemic / organ …) turned out to be 10 mg/kg/day.
As for `C=CCOC(Cn1ccnc1)c1ccc(Cl)cc1Cl.O=S(=O)(O)O` (centres undefined) [Imazalil sulfate], the LEL with rat [3] (setting [8]) is 80 mg/kg/day; with rat [3] (setting [15]), 40 mg/kg/day; with rabbit [4] (setting [16]), 20 mg/kg/day; in the data set on rabbit [4] (setting [17]), 5 mg/kg/day. In addition, the LOAEL was 80 mg/kg/day with rat [3] (setting [8]), 40 mg/kg/day with rat [3] (setting [14]), greater than 20 mg/kg/day in the data set with rabbit [4] (setting [16]) and 10 mg/kg/day with rabbit [4] (setting [9]). For the same molecule, the NEL with rat [3] (setting [8]) is 40 mg/kg/day; in the data set with rat [3] (setting [15]), less than 40 mg/kg/day; with rabbit [4] (setting [16]), 10 mg/kg/day; in the data set on rabbit [4] (setting [17]), less than 5 mg/kg/day. The NOAEL was 40 mg/kg/day in the data set on rat [3] (setting [8]), less than 40 mg/kg/day with rat [3] (setting [14]), no less than 20 mg/kg/day with rabbit [4] (setting [16]) and 5 mg/kg/day in the data set with rabbit [4] (setting [9]).
In the data set on rat [5] (setting [18]), `N#Cc1ccc(CC(=NNC(=O)Nc2ccc(OC(F)(F)F)cc2)c2cccc(C(F)(F)F)c2)cc1` (mixture of isomers) [Metaflumizone] returned an LEL of 50 mg/kg/day, an LOAEL of 50 mg/kg/day, an NEL of 20 mg/kg/day and an NOAEL of 20 mg/kg/day. In the data set with rat [5] (setting [19]), the LEL was 50 mg/kg/day, the LOAEL stood at 50 mg/kg/day, the NEL turned out to be 20 mg/kg/day and the NOAEL amounted to 20 mg/kg/day.
For `CCN(CC)C(=O)SCc1ccc(Cl)cc1` [Thiobencarb], the LEL in the data set on rat [6] (setting [20]) is 100 mg/kg/day; in the data set on rat [6] (setting [21]), 2 mg/kg/day; with rat [7] (setting [23]) it was 150 mg/kg/day; in the data set with rat [7] (setting [24]), 150 mg/kg/day. Moreover, the LOAEL in the data set on rat [6] (setting [20]) was greater than 100 mg/kg/day; in the data set on rat [6] (setting [22]), 2 mg/kg/day; with rat [7] (setting [23]) it was 150 mg/kg/day; with rat [7] (setting [24]), 150 mg/kg/day. The NEL was 20 mg/kg/day in the data set on rat [6] (setting [20]), less than 2 mg/kg/day in the data set with rat [6] (setting [21]), 25 mg/kg/day with rat [7] (setting [23]) and 25 mg/kg/day in the data set on rat [7] (setting [24]). Also, the no observed adverse effect level (NOAEL) in the data set on rat [6] (setting [20]) was no less than 100 mg/kg/day; in the data set with rat [6] (setting [22]), less than 2 mg/kg/day; in the data set with rat [7] (setting [23]) it was 25 mg/kg/day; in the data set on rat [7] (setting [24]), 25 mg/kg/day.
